Reference: PMC7418971 (PLoS Pathogens, 2020)

Experiments:
[1] = target: Eng195 M2-N31 CD peptide (aa 18-60) (Influenza A virus, UniProt P06821, A27V/L43T); assay type: biochemical, Influenza A/England/195/2009 (H1N1)
Eng195 in MDCK culture = assay type: cell-based, influenza A virus
[2] = target: Eng195 M2-S31 CD peptide (aa 18-60) (Influenza A virus, UniProt P06821, A27V/L43T/N31S); assay type: biochemical, Influenza A/England/195/2009 (H1N1)
[3] = tested on: E195 engineered to express M2-S31; assay type: cell-based, influenza A virus
[4] = target: Eng195 M2-N31 TM peptide (aa 18-46) (Influenza A virus, UniProt P06821, A27V/L43T); assay type: biochemical, Influenza A/England/195/2009 (H1N1)
M2-N31 TM peptides = M2-N31 TM peptides (Influenza A virus, UniProt P06821, A27V/L43T); assay type: biochemical, Influenza A/England/195/2009 (H1N1)
M2-S31N (H3N2 Udorn) = conditions: read-out: IC50 in two-electrode voltage clamp assay; cited from earlier work
[5] = target: M2-N31 CD peptide channels (Influenza A virus, UniProt P06821, A27V/L43T); assay type: biochemical, Influenza A/England/195/2009 (H1N1)

With `CC(N)C12CC3CC(CC(C3)C1)C2` (racemic) [rimantadine, (RS)-1-(1-adamantyl)ethanamine, reference compound] the “effect on M2-N31 CD peptide channel activity” value [1] was “only blocked activity of Eng195 M2-S31 peptides”, the “inhibitor concentration under which virus could be expanded from plaques” value (from here on “inhibitor concentration”) (Eng195 in MDCK culture) was 80 µM and the “time for cytopathic effects (CPE) to manifest on plaque expansion” value (from here on “time for cytopathic effects (CPE)”) (Eng195 in MDCK culture) was no more than 24 h. The “effect on M2-S31 CD peptide channel activity” value [2] was “blocked activity” and the “inhibition of channel activity of M2-WT (S31)” value [2] was 50%.

With `CN1CCN(C(=O)c2ccc3ccccc3c2)CC1` [B] the “effect on M2-N31 CD peptide channel activity” value [1] was “not N31”, the “antiviral effect versus E195 with M2-S31 (N31S)” value (from here on “antiviral effect versus E195”) [3] was “neither B nor K exhibited antiviral effects” and the “effect on M2-S31 CD peptide channel activity” value [2] was “activity versus M2-S31”.

In the case of `Cc1c2ccccc2n2cc(-c3ccccc3)nc(C(C)C)c12` [DL7], the “% M2 activity (40 µM) N31 CD” value [1] is reported as 19.5%, the “% M2 activity (40 µM) N31 TM” value [4] is reported as 15.0% and the “% M2 activity (40 µM) S31 CD” value [2] is reported as 31.3%.

In the case of `Cc1ccc2nc(Oc3ccccc3)ccc2c1` [DP9], the “% M2 activity (40 µM) N31 CD” value [1] is reported as 65.8%, the “% M2 activity (40 µM) N31 TM” value [4] is reported as 100% and the “% M2 activity (40 µM) S31 CD” value [2] is reported as 97.4%.

In the case of `c1cc2nc(C34CC5CC(CC(C5)C3)C4)[nH]c2cn1` [D], the “effect on M2-N31 CD peptide channel activity” value [1] is reported as “inhibited” and the “effect on M2-S31 CD peptide channel activity” value [2] is reported as “inhibited”.

For `CCN1CCC(NC2C3CC4CC(C3)CC2C4)CC1` (stereo not shown) [E], the “effect on M2-N31 CD peptide channel activity” value [1] was “no activity” and the “effect on M2-S31 CD peptide channel activity” value [2] was “no activity”.

With `OC(CN1CCCC1)C12CC3CC(CC(C3)C1)C2` (stereo not shown) [G] the “effect on M2-N31 CD peptide channel activity” value [1] was “no activity” and the “effect on M2-S31 CD peptide channel activity” value [2] was “no activity”.

For `Cc1ncc(C23CC4CC(CC(C4)C2)C3)[nH]1` [H], the “effect on M2-N31 CD peptide channel activity” value [1] was “inhibited” and the “effect on M2-S31 CD peptide channel activity” value [2] was “inhibited”.

For `OCCNC12CC3CC(CC(C3)C1)C2` [J], the “effect on M2-N31 CD peptide channel activity” value [1] was “inhibited” and the “effect on M2-S31 CD peptide channel activity” value [2] was “inhibited”.

In the case of `O=C(Nc1nnc[nH]1)c1cc2ccccc2o1` [K], the “effect on M2-N31 CD peptide channel activity” value [1] is reported as “not N31”, the “antiviral effect versus E195” value [3] is reported as “neither B nor K exhibited antiviral effects” and the “effect on M2-S31 CD peptide channel activity” value [2] is reported as “activity versus M2-S31”.

With `COc1ccccc1NC(=S)NC(=O)c1cc2ccccc2cc1OC` [L1.1] the “% M2 activity (40 µM) N31 CD” value [1] was 32.8%, the “inhibition of M2-N31 TM peptide channels in bilayer” value (M2-N31 TM peptides) was “inhibited TM peptides” and the “antiviral effect versus E195” value [3] was “active”. For the same molecule, the “% M2 activity (40 µM) N31 TM” value [4] was 22.0%, the “inhibitor concentration” value (Eng195 in MDCK culture) was no more than 20 µM and the “time for cytopathic effects (CPE)” value (Eng195 in MDCK culture) was “at least 48 h”. The “% M2 activity (40 µM) S31 CD” value [2] was 41.8%.

For `Nc1nc(-c2cc3c(cc2Cl)OCCO3)cs1` [L], the “effect on M2-N31 CD peptide channel activity” value [1] was “inactive” and the “effect on M2-S31 CD peptide channel activity” value [2] was “inactive”.

For `c1csc(-c2cc(CNC34CC5CC(CC(C5)C3)C4)no2)c1` [M2WJ332, (3S,5S,7S)-N-{[5-(thiophen-2-yl)-1,2-oxazol-3-yl]methyl}tricycle[3.3.1.1~3,7~]decan-1-aminium, reference compound], the “% M2 activity (40 µM) N31 CD” value [1] was 58.4%, the “effect on M2-N31 CD peptide channel activity” value [1] was “blocked the activity” and the “inhibition of channel activity of the N31 CD peptide” value [1] was ~ 40%. For the same molecule, the IC50 (M2-S31N (H3N2 Udorn)) was 16 µM, the “effect on TM peptide activity in bilayer” value (M2-N31 TM peptides) was “modest effect” and the “inhibition of M2-N31 TM peptide channels in bilayer” value (M2-N31 TM peptides) was “retained channel activity”. The “effect on CD peptide activity in bilayer” value [5] was “abrogate activity”, the “inhibition of M2-N31 CD peptide channels in bilayer” value [5] was “sensitive to nanomolar concentrations” and the “% M2 activity (40 µM) N31 TM” value [4] was 100%. For the same molecule, the “effect on M2-N31 TM peptide channel activity” value [4] was “no TM-specific activity”, the “inhibitor concentration” value (Eng195 in MDCK culture) was 80 µM and the “plaques retained by selected supernatants” value (Eng195 in MDCK culture) was ~ 30 % of DMSO control. The “time for cytopathic effects (CPE)” value (Eng195 in MDCK culture) was no more than 24 h and the “% M2 activity (40 µM) S31 CD” value [2] was 85%.

With `CCCCCCCCCN1C[C@H](O)[C@@H](O)[C@H](O)[C@H]1CO` [NNDNJ, reference compound] the “effect on M2-N31 CD peptide channel activity” value [1] was “blocked the activity” and the “effect on M2-S31 CD peptide channel activity” value [2] was “blocked the activity”.
